Source: PubChem BioAssay (NCI)
Values joined by “and” are separate entries in the source; they are usually repeats but may differ in a detail not shown here. Equal values may be shown once.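 In this assay, cells in 96-well plates receive the compound at five concentrations for 48 hours. Endpoints are linearly interpolated between the surrounding concentrations. GI50 = concentration required for 50% inhibition of growth. TGI marks complete inhibition of growth.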

Assays:
Experiment in all cases: NCI anticancer screen, dose series, 48 h
SK-OV-3 ovarian = test system: SK-OV-3 ovarian
NCI-H460 lung = test system: NCI-H460 lung
NCI/ADR-RES ovarian = test system: NCI/ADR-RES ovarian
SF-295 CNS = test system: SF-295 CNS
TK-10 renal = test system: TK-10 renal
HCC-2998 colon = test system: HCC-2998 colon
LOX IMVI melanoma = test system: LOX IMVI melanoma
M14 melanoma = test system: M14 melanoma
MDA-MB-435 = test system: MDA-MB-435
UACC-62 melanoma = test system: UACC-62 melanoma

SMILES	GI50 (SK-OV-3 ovarian)	TGI (SK-OV-3 ovarian)	GI50 (NCI-H460 lung)	TGI (NCI-H460 lung)	GI50 (NCI/ADR-RES ovarian)	TGI (NCI/ADR-RES ovarian)	GI50 (SF-295 CNS) [µM]	TGI (SF-295 CNS)	GI50 (TK-10 renal)	TGI (TK-10 renal)	TGI (HCC-2998 colon)	GI50 (LOX IMVI melanoma)	TGI (LOX IMVI melanoma)	GI50 (M14 melanoma)	TGI (M14 melanoma)	GI50 (MDA-MB-435)	TGI (MDA-MB-435)	GI50 (UACC-62 melanoma)	TGI (UACC-62 melanoma)	GI50 (HCC-2998 colon) [µM]
NC(=O)c1ccc2nc(-c3ccc(Oc4ccc(Cl)cc4)cc3)[nH]c2c1	17.7 µM and 23.1 µM	75 µM and 48.2 µM	23.4 µM and 14.1 µM	75 µM and 32.7 µM	> 75 µM and 13.3 µM	> 75 µM and 32.9 µM	> 75	> 75 µM	8.61 µM and 16.4 µM	75 µM and 39.9 µM	75 µM and 33.5 µM	17.9 µM and 15.6 µM	75 µM and 36.7 µM	19.9 µM and 14.8 µM	75 µM and 29.8 µM	34.4 µM and 14.5 µM	75 µM and 31.2 µM	75 µM and 16.4 µM	75 µM and 30.7 µM	–
CC1(C)[C@@H](O[C@@H]2OC[C@@H](O[C@@H]3O[C@H](CO)[C@@H](O)[C@H](O)[C@H]3O[C@@H]3OC[C@@H](O)[C@H](O)[C@H]3O)[C@H](O)[C@H]2O[C@@H]2O[C@H](CO)[C@@H](O)[C@H](O)[C@H]2O)CC[C@]2(C)[C@H]3CC[C@]45OC[C@@]6(CC[C@](C)(C=O)C[C@H]64)[C@H](O)C[C@@]5(C)[C@]3(C)CC[C@@H]12	0.922 µM	1.67 µM	1.17 µM	3.26 µM	1.24 µM	3.43 µM	0.892	1.64 µM	0.945 µM	1.83 µM	1.75 µM	0.924 µM	1.95 µM	0.925 µM	1.81 µM	0.851 µM	1.6 µM	0.909 µM	1.81 µM	0.931
Cc1cc(Cl)ccc1NC(=O)c1cc2ccccc2cc1O	2.11 µM	> 100 µM	0.511 µM	> 100 µM	0.433 µM	–	2.56	> 28.6 µM	1.56 µM	> 100 µM	> 100 µM	0.539 µM	> 100 µM	0.657 µM	> 100 µM	0.555 µM	> 100 µM	0.354 µM	> 100 µM	3.92
CCCCCCCCCCCC1CCCC(C)N1 (configuration not stated)	14.5 µM	28.5 µM and 158 µM	3.67 µM	12.5 µM and 118 µM	11.9 µM	27.3 µM and 161 µM	13.5	28.3 µM and 154 µM	6.47 µM	19.3 µM	–	3.62 µM	16.1 µM and > 70.7 µM	8.47 µM	31.7 µM	5.01 µM	18.2 µM	8.12 µM	23.6 µM and 102 µM	2.05
N#CSCC1CC(O)(c2ccccc2)CC(c2ccc(F)cc2)O1 (configuration not stated)	4.67 µM	15.7 µM	2.08 µM	4.34 µM	1.92 µM	4.77 µM	1.64	3.34 µM	2.07 µM	5.77 µM	17.6 µM	1.7 µM	3.1 µM	1.62 µM	3.13 µM	1.83 µM	4.08 µM	2.14 µM	6.12 µM	4.02
Nc1nc(-c2ccccc2)nc2c1[n+]([O-])c1ccccc1[n+]2[O-]	–	> 100 µM	–	> 100 µM	–	> 100 µM	–	> 100 µM	–	> 100 µM	> 100 µM	–	> 100 µM	–	> 100 µM	–	> 100 µM	–	> 100 µM	–
COc1cc2c(cc1Nc1nc(Nc3ccsc3C(N)=O)c3cc[nH]c3n1)N(C(=O)CN(C)C)CCC2(C)C	3.64 µM	6.94 µM	0.889 µM	5.3 µM	2.01 µM	8.49 µM	3.33	7.39 µM	1.36 µM	4.97 µM	4.47 µM	1.99 µM	6.08 µM	1.43 µM	5.68 µM	0.299 µM	2.49 µM	1.77 µM	5.44 µM	0.485
Cc1c(COc2cc(OCc3cccc(C#N)c3)c(CN3C[C@H](O)C[C@@H]3C(=O)O)cc2Cl)cccc1-c1ccc2c(c1)OCCO2	19.4 µM	37.7 µM	14 µM	29 µM	47.5 µM	> 100 µM	10.7	22.6 µM	20.2 µM	41.5 µM	29.2 µM	4.28 µM	16 µM	13.2 µM	27.1 µM	17 µM	33.6 µM	17 µM	32.3 µM	15.6
COc1cc(O)c(C(=O)/C=C/c2ccc(O)cc2)c(O)c1[C@@H]1C[C@H](CCc2ccc(O)cc2)O[C@H](c2ccc(O)cc2)C1	2.82 µM	7.65 µM	3 µM	7.87 µM	3.72 µM	14.4 µM	4.36	17.8 µM	4.55 µM	17.1 µM	4.02 µM	2.93 µM	8.37 µM	3.48 µM	12.2 µM	3.89 µM	14 µM	3.38 µM	12.9 µM	2.25
